Key:
DPP4 = DPP4 (Homo sapiens, UniProt P27487); assay: DPP4 inhibition, fluorogenic substrate H-Gly-Pro-AMC; assay type: biochemical; design: purchased R&D Systems; details: for inhibition at 1 µM: read-out: hDPP4 inhibition % at 1 μM
Recombinant human FAP = biological target: T1, Recombinant human FAP (Homo sapiens, UniProt Q12884); assay: FAP inhibition, fluorogenic substrate Z-Gly-Pro-AMC; assay type: biochemical; details: for inhibition at 1 µM: read-out: hFAP inhibition % at 1 μM
T1 construct: purchased R&D systems
T1 sequence (Q12884 1-760): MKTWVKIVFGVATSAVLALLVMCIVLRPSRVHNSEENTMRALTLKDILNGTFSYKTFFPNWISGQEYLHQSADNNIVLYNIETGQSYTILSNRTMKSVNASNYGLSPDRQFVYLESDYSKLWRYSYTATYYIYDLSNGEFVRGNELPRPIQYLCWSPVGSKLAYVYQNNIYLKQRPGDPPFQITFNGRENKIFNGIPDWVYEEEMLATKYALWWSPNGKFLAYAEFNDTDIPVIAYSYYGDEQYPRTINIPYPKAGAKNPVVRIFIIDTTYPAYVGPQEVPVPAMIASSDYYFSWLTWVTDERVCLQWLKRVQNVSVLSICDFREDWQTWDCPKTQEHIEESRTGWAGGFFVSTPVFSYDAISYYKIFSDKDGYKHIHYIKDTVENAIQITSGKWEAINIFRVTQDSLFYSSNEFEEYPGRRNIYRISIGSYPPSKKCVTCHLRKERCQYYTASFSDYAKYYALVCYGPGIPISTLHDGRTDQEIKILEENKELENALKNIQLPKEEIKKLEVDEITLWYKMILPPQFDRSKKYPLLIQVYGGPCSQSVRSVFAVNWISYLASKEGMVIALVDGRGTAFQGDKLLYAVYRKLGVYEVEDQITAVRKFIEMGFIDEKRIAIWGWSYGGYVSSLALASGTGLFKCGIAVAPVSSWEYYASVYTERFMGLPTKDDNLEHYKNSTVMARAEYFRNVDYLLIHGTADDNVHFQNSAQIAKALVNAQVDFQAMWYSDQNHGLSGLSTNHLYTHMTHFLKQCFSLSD
Method in brief: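 Recombinant human FAP, 10 ng per reaction, in 50 mM Tris pH 7.5 with 1 M NaCl and 1 mg/ml BSA at 25° C; substrate Z-Gly-Pro-AMC, ≤0.1% DMSO. AMC fluorescence read at ex 380/em 460 nm; % signal-rate decrease vs no-inhibitor control, 8-point curves fitted to a four-parameter logistic for IC50.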

[1] = 25° C., Z-Gly-Pro-AMC substrate
[2] = recombinant human FAP, substrate Z-Gly-Pro-AMC

Sequence of DPP4 (P27487 whole entry): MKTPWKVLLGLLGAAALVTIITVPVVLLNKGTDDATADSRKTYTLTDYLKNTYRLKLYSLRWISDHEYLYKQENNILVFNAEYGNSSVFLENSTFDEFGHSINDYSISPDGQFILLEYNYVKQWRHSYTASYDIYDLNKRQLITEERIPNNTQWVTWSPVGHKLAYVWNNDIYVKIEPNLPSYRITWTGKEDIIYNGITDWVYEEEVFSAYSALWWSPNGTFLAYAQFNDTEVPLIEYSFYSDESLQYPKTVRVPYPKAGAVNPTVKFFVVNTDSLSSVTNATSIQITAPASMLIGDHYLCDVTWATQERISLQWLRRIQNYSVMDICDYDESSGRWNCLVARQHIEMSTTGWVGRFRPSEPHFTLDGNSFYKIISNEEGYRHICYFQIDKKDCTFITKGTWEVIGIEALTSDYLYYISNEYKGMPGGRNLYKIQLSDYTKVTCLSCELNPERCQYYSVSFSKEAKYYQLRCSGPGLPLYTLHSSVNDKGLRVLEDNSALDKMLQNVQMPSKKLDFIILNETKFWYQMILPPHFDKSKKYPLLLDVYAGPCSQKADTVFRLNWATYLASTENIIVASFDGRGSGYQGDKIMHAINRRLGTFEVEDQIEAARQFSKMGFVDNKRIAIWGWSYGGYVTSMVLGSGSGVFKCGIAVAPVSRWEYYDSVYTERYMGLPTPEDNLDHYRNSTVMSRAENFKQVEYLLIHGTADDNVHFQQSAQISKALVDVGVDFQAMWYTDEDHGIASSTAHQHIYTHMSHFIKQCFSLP

| IC50 (DPP4; recombinant human DPP4) | IC50 (Recombinant human FAP; [2]) | Compound | further results |
| --- | --- | --- | --- |
|  |  | N#C[C@@H]1CCCN1C(=O)CN1CC[C@H](Oc2cccc3cc4ccccc4nc23)C1 [Example 96, (S)-1-(2-((S)-3-(acridin-4-yloxy)pyrrolidin-1-yl)acetyl)pyrrolidine-2-carbonitrile] | inhibition at 1 µM (DPP4): 11.5%; IC50 (Recombinant human FAP; [1]): 270 nM |
|  |  | N#C[C@@H]1CCCN1C(=O)CN1CC[C@H](Oc2ccccc2-c2nc3ccccc3o2)C1 [Example 97, (S)-1-(2-((S)-3-(2-(benzo[d]oxazol-2-yl)phenoxy)pyrrolidin-1-yl)acetyl)pyrrolidine-2-carbonitrile] | inhibition at 1 µM (DPP4): 8.3%; inhibition at 1 µM (Recombinant human FAP): 36.3% |
|  |  | CC(=O)N1CCN(c2ccc(O[C@H]3CCN(CC(=O)N4CCC[C@H]4C#N)C3)cc2)CC1 [Example 98, (S)-1-(2-((S)-3-(4-(4-acetylpiperazin-1-yl)phenoxy)pyrrolidin-1-yl)acetyl)pyrrolidine-2-carbonitrile] | inhibition at 1 µM (DPP4): 9.1%; inhibition at 1 µM (Recombinant human FAP): 63.2% |
|  |  | N#C[C@@H]1CCCN1C(=O)CN1CC[C@H](Oc2ccccc2C(=O)Nc2ccccc2)C1 [Example 99, 2-(((S)-1-(2-((S)-2-cyanopyrrolidin-1-yl)-2-oxoethyl)pyrrolidin-3-yl)oxy)-N-phenylbenzamide] | inhibition at 1 µM (DPP4): 10.9%; inhibition at 1 µM (Recombinant human FAP): 18.2% |
|  |  | N#C[C@@H]1CCCN1C(=O)CN1CC[C@H](Oc2cc(-c3ccc(Br)cc3)no2)C1 [Example 102, (S)-1-(2-((S)-3-((3-(4-bromophenyl)isoxazol-5-yl)oxy)pyrrolidin-1-yl)acetyl)pyrrolidine-2-carbonitrile] | inhibition at 1 µM (DPP4): 6.2%; inhibition at 1 µM (Recombinant human FAP): 52.4% |
|  |  | N#C[C@@H]1C[C@@H]2C[C@@H]2N1C(=O)CN1CCC(Nc2ccnc3ccccc23)CC1 [Example 112, (1S,3S,5S)-2-(2-(4-(quinolin-4-ylamino)piperidin-1-yl)acetyl)-2-azabicyclo[3.1.0]hexane-3-carbonitrile] | hDPP4 inhibition % at 1 μM (DPP4): No inhibition**; IC50 (Recombinant human FAP; [1]): 18.8 nM |
|  |  | N#C[C@@H]1CCCN1C(=O)CN1CCC(Nc2cncc3ccoc23)CC1 [Example 116, (S)-1-(2-(4-(furo[3,2-c]pyridin-7-ylamino)piperidin-1-yl)acetyl)pyrrolidine-2-carbonitrile] | hDPP4 inhibition % at 1 μM (DPP4): No inhibition**; inhibition at 1 µM (Recombinant human FAP): 82.4% |
|  |  | N#C[C@@H]1CCCN1C(=O)CN1CCC(Oc2cnc3ccccc3c2)CC1 [Example 117, (S)-1-(2-(4-(quinolin-3-yloxy)piperidin-1-yl)acetyl)pyrrolidine-2-carbonitrile] | hDPP4 inhibition % at 1 μM (DPP4): No inhibition**; IC50 (Recombinant human FAP; [1]): 22.9 nM |
|  |  | N#C[C@@H]1CCCN1C(=O)CN1CCC(Oc2ccc3ncccc3c2)CC1 [Example 120, (S)-1-(2-(4-(quinolin-6-yloxy)piperidin-1-yl)acetyl)pyrrolidine-2-carbonitrile] | hDPP4 inhibition % at 1 μM (DPP4): No inhibition**; IC50 (Recombinant human FAP; [1]): 11.8 nM |
|  |  | Cc1ccc2ncccc2c1NC1CCN(CC(=O)N2C[C@@H](F)C[C@H]2C#N)CC1 [Example 134, (2S,4S)-4-fluoro-1-(2-(4-((6-methylquinolin-5-yl)amino)piperidin-1-yl)acetyl)pyrrolidine-2-carbonitrile] | IC50 (DPP4; 25° C., H-Gly-Pro-AMC substrate): 8010 nM; IC50 (Recombinant human FAP; [1]): 343 nM |
| > 10000 nM | 20 nM | COc1ccc2ncccc2c1N[C@H]1CCN(CC(=O)N2CCC[C@H]2C#N)C1 [Example 240, (2S)-1-[2-[(3S)-3-[(6-methoxy-5-quinolyl)amino]pyrrolidin-1-yl]acetyl]pyrrolidine-2-carbonitrile] |  |
| > 10000 nM | 47.1 nM | CN(c1ccc2ccccc2n1)C1CCN(CC(=O)N2CCC[C@H]2C#N)CC1 [Example 307, (2S)-1-[2-[4-[methyl(2-quinolyl)amino]-1-piperidyl]acetyl]pyrrolidine-2-carbonitrile] |  |
| > 10000 nM | 96.8 nM | CN(c1ccnc2ccccc12)C1CCN(CC(=O)N2CCC[C@H]2C#N)CC1 [Example 308, (2S)-1-[2-[4-[methyl(4-quinolyl)amino]-1-piperidyl]acetyl]pyrrolidine-2-carbonitrile] |  |
| > 10000 nM | 68.3 nM | CN(c1cccc2ncccc12)C1CCN(CC(=O)N2CCC[C@H]2C#N)CC1 [Example 309, (2S)-1-[2-[4-[methyl(5-quinolyl)amino]-1-piperidyl]acetyl]pyrrolidine-2-carbonitrile] |  |
| > 10000 nM | 31.8 nM | CN(c1cncc2ccoc12)C1CCN(CC(=O)N2CCC[C@H]2C#N)CC1 [Example 312, (2S)-1-[2-[4-[furo[3,2-c]pyridin-7-yl(methyl)amino]-1-piperidyl]acetyl]pyrrolidine-2-carbonitrile] |  |
| > 10000 nM | 18.2 nM | CN(c1cccc2cnccc12)C1CCN(CC(=O)N2C[C@@H](F)C[C@H]2C#N)CC1 [Example 318, (2S,4S)-4-fluoro-1-[2-[4-[5-isoquinolyl(methyl)amino]-1-piperidyl]acetyl]pyrrolidine-2-carbonitrile] |  |
| 6200 nM | 5.5 nM | N#C[C@@H]1C[C@H](F)CN1C(=O)CN1CCC(Nc2ccc(OCc3ccccc3)c3ncccc23)CC1 [Example 332, (2S,4S)-1-[2-[4-[(8-benzyloxy-5-quinolyl)amino]-1-piperidyl]acetyl]-4-fluoro-pyrrolidine-2-carbonitrile] |  |
| 7540 nM | 2.6 nM | N#C[C@@H]1C[C@H](F)CN1C(=O)CN1CCC(Nc2cccc3ncc(Cl)cc23)CC1 [Example 333, (2S,4S)-1-[2-[4-[(3-chloro-5-quinolyl)amino]-1-piperidyl]acetyl]-4-fluoro-pyrrolidine-2-carbonitrile] |  |
| 7330 nM | 5.9 nM | N#Cc1ccc2c(NC3CCN(CC(=O)N4C[C@@H](F)C[C@H]4C#N)CC3)cccc2n1 [Example 335, 5-[[1-[2-oxo-2-[(2S,4S)-2-cyano-4-fluoro-pyrrolidin-1-yl]ethyl]-4-piperidyl]amino]quinoline-2-carbonitrile] |  |
| > 10000 nM | 22.7 nM | N#C[C@@H]1C[C@H](F)CN1C(=O)CN1CCC(Nc2ccc3cnccc3c2)CC1 [Example 341, (2S,4S)-4-fluoro-1-[2-[4-(6-isoquinolylamino)-1-piperidyl]acetyl]pyrrolidine-2-carbonitrile] |  |
| 6840 nM | 2.3 nM | N#C[C@@H]1C[C@H](F)CN1C(=O)CN1CCC(Oc2cccc3ncc(F)cc23)CC1 [Example 416, (2S,4S)-4-fluoro-1-[2-[4-[(3-fluoro-5-quinolyl)oxy]-1-piperidyl]acetyl]pyrrolidine-2-carbonitrile] |  |
| 4670 nM | 3.7 nM | N#C[C@@H]1C[C@H](F)CN1C(=O)CN1CCC(Oc2ccc(Cl)c3ncccc23)CC1 [Example 418, (2S,4S)-1-[2-[4-[(8-chloro-5-quinolyl)oxy]-1-piperidyl]acetyl]-4-fluoro-pyrrolidine-2-carbonitrile] |  |

| Compound | IC50 (DPP4; recombinant human DPP4) | IC50 (Recombinant human FAP; [2]) | further results |
| --- | --- | --- | --- |
| CN(c1cccc2ccncc12)C1CCN(CC(=O)N2C[C@@H](F)C[C@H]2C#N)CC1 [Example 320, (2S,4S)-4-fluoro-1-[2-[4-[8-isoquinolyl(methyl)amino]-1-piperidyl]acetyl]pyrrolidine-2-carbonitrile] | 410 nM | 46.2 nM |  |

Source: patent US11655235B2, “Pyrrolidine and piperidine compounds” (YUHAN CORPORATION, priority 2019, dated 2023)
